Results published in the supplement of paper PMC10307832.

Legend:
Assay in all cases: relative viability (nuclei count vs DMSO), 5 days (fraction); higher = more cells survive
201T = system: 201T
In short: (§1)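 For relative viability, nuclei counts in treated wells were divided by those in vehicle wells. Lung cancer cell lines had been pin-tool dosed in 1536-well plates the day after seeding and cultured for 5 days, then fixed and stained in one step (final 0.05% Triton X-100, 1% formaldehyde, 1 ug/ml Hoechst) and imaged at 4×. Doses were one drug alone or a fixed anchor-drug dose plus five library-drug doses (not always all listed) in √10 steps, and values are duplicate-plate medians.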

ABC-1 = system: ABC-1
In short: as §1

EPLC-272H = system: EPLC-272H
In short: as §1

HCC-78 = system: HCC-78
In short: as §1

LCLC-103H = system: LCLC-103H
In short: as §1

LCLC-97TM1 = system: LCLC-97TM1
In short: as §1

LOU-NH91 = system: LOU-NH91
In short: as §1

NCI-H1355 = system: NCI-H1355
In short: as §1

NCI-H1651 = system: NCI-H1651
In short: as §1

NCI-H1734 = system: NCI-H1734
In short: as §1

NCI-H1792 = system: NCI-H1792
In short: as §1

NCI-H1793 = system: NCI-H1793
In short: as §1

NCI-H1915 = system: NCI-H1915
In short: as §1

NCI-H1993 = system: NCI-H1993
In short: as §1

NCI-H460 = system: NCI-H460
In short: as §1

NCI-H596 = system: NCI-H596
In short: as §1

NCI-H650 = system: NCI-H650
In short: as §1

NCI-H661 = system: NCI-H661
In short: as §1

PC-3 [JPC-3] = system: PC-3 [JPC-3]
In short: as §1

RERF-LC-KJ = system: RERF-LC-KJ
In short: as §1

SK-MES-1 = system: SK-MES-1
In short: as §1

SW 1573 = system: SW 1573
In short: as §1

Q: Which results are given for `C=C1C(=O)O[C@@H](CCCCCCCC)[C@@H]1C(=O)O` [C-75] + Nc1ncn([C@H]2C[C@H](O)[C@@H](CO)O2)c(=O)n1 [Decitabine] (partner 2 µM)?
A: relative viability (201T; first compound 0.08 µM): 0.844; relative viability (201T; first compound 0.253 µM): 0.938; relative viability (201T; first compound 0.8 µM): 0.842; relative viability (201T; first compound 2.53 µM): 0.627; relative viability (201T; first compound 8 µM): 0.813; relative viability (ABC-1; first compound 0.08 µM): 1.03; relative viability (ABC-1; first compound 0.253 µM): 1.18; relative viability (ABC-1; first compound 0.8 µM): 1.08; relative viability (ABC-1; first compound 2.53 µM): 0.72; relative viability (ABC-1; first compound 8 µM): 0.81; relative viability (EPLC-272H; first compound 0.08 µM): 0.338; relative viability (EPLC-272H; first compound 0.253 µM): 0.436; relative viability (EPLC-272H; first compound 0.8 µM): 0.334; relative viability (EPLC-272H; first compound 2.53 µM): 0.33; relative viability (EPLC-272H; first compound 8 µM): 0.349; relative viability (HCC-78; first compound 0.08 µM): 0.693; relative viability (HCC-78; first compound 0.253 µM): 0.676; relative viability (HCC-78; first compound 0.8 µM): 0.72; relative viability (HCC-78; first compound 8 µM): 0.667; relative viability (LCLC-103H; first compound 0.08 µM): 0.697; relative viability (LCLC-103H; first compound 0.253 µM): 0.716; relative viability (LCLC-103H; first compound 0.8 µM): 0.674; relative viability (LCLC-103H; first compound 2.53 µM): 0.623; relative viability (LCLC-103H; first compound 8 µM): 0.725; relative viability (LCLC-97TM1; first compound 0.08 µM): 0.197; relative viability (LCLC-97TM1; first compound 0.253 µM): 0.254; relative viability (LCLC-97TM1; first compound 0.8 µM): 0.206; relative viability (LCLC-97TM1; first compound 2.53 µM): 0.215; relative viability (LCLC-97TM1; first compound 8 µM): 0.233; relative viability (LOU-NH91; first compound 0.08 µM): 0.83; relative viability (LOU-NH91; first compound 0.253 µM): 0.734; relative viability (LOU-NH91; first compound 0.8 µM): 0.752; relative viability (LOU-NH91; first compound 8 µM): 0.792; relative viability (NCI-H1355; first compound 0.08 µM): 0.333; relative viability (NCI-H1355; first compound 0.253 µM): 0.374; relative viability (NCI-H1355; first compound 0.8 µM): 0.36; relative viability (NCI-H1355; first compound 2.53 µM): 0.324; relative viability (NCI-H1355; first compound 8 µM): 0.355; relative viability (NCI-H1651; first compound 0.08 µM): 0.565; relative viability (NCI-H1651; first compound 0.253 µM): 0.685; relative viability (NCI-H1651; first compound 0.8 µM): 0.559; relative viability (NCI-H1651; first compound 2.53 µM): 0.381; relative viability (NCI-H1651; first compound 8 µM): 0.599; relative viability (NCI-H1734; first compound 0.08 µM): 0.516; relative viability (NCI-H1734; first compound 0.253 µM): 0.589; relative viability (NCI-H1734; first compound 0.8 µM): 0.457; relative viability (NCI-H1734; first compound 2.53 µM): 0.264; relative viability (NCI-H1734; first compound 8 µM): 0.448; relative viability (NCI-H1792; first compound 0.08 µM): 0.516; relative viability (NCI-H1792; first compound 0.253 µM): 0.554; relative viability (NCI-H1792; first compound 0.8 µM): 0.509; relative viability (NCI-H1792; first compound 2.53 µM): 0.494; relative viability (NCI-H1792; first compound 8 µM): 0.475; relative viability (NCI-H1793; first compound 0.08 µM): 0.485; relative viability (NCI-H1793; first compound 0.253 µM): 0.571; relative viability (NCI-H1793; first compound 2.53 µM): 0.275; relative viability (NCI-H1793; first compound 8 µM): 0.449; relative viability (NCI-H1915; first compound 0.08 µM): 0.254; relative viability (NCI-H1915; first compound 0.253 µM): 0.24; relative viability (NCI-H1915; first compound 0.8 µM): 0.296; relative viability (NCI-H1915; first compound 2.53 µM): 0.24; relative viability (NCI-H1915; first compound 8 µM): 0.225; relative viability (NCI-H1993; first compound 0.08 µM): 0.695; relative viability (NCI-H1993; first compound 0.253 µM): 0.685; relative viability (NCI-H1993; first compound 0.8 µM): 0.605; relative viability (NCI-H1993; first compound 2.53 µM): 0.549; relative viability (NCI-H1993; first compound 8 µM): 0.571; relative viability (NCI-H460; first compound 0.08 µM): 0.469; relative viability (NCI-H460; first compound 0.253 µM): 0.454; relative viability (NCI-H460; first compound 0.8 µM): 0.46; relative viability (NCI-H460; first compound 2.53 µM): 0.198; relative viability (NCI-H460; first compound 8 µM): 0.492; relative viability (NCI-H596; first compound 0.08 µM): 0.943; relative viability (NCI-H596; first compound 0.253 µM): 1.16; relative viability (NCI-H596; first compound 0.8 µM): 0.953; relative viability (NCI-H596; first compound 2.53 µM): 1.07; relative viability (NCI-H596; first compound 8 µM): 0.96; relative viability (NCI-H650; first compound 0.08 µM): 0.315; relative viability (NCI-H650; first compound 0.253 µM): 0.35; relative viability (NCI-H650; first compound 0.8 µM): 0.329; relative viability (NCI-H650; first compound 2.53 µM): 0.294; relative viability (NCI-H650; first compound 8 µM): 0.403; relative viability (NCI-H661; first compound 0.08 µM): 0.545; relative viability (NCI-H661; first compound 0.253 µM): 0.54; relative viability (NCI-H661; first compound 0.8 µM): 0.519; relative viability (NCI-H661; first compound 2.53 µM): 0.41; relative viability (NCI-H661; first compound 8 µM): 0.448; relative viability (PC-3 [JPC-3]; first compound 0.08 µM): 0.78; relative viability (PC-3 [JPC-3]; first compound 0.253 µM): 0.798; relative viability (PC-3 [JPC-3]; first compound 0.8 µM): 0.782; relative viability (PC-3 [JPC-3]; first compound 2.53 µM): 0.793; relative viability (PC-3 [JPC-3]; first compound 8 µM): 0.91; relative viability (RERF-LC-KJ; first compound 0.08 µM): 0.682; relative viability (RERF-LC-KJ; first compound 0.253 µM): 0.848; relative viability (RERF-LC-KJ; first compound 0.8 µM): 0.613; relative viability (RERF-LC-KJ; first compound 2.53 µM): 0.568; relative viability (RERF-LC-KJ; first compound 8 µM): 0.605; relative viability (SK-MES-1; first compound 0.08 µM): 0.439; relative viability (SK-MES-1; first compound 0.253 µM): 0.367; relative viability (SK-MES-1; first compound 0.8 µM): 0.368; relative viability (SK-MES-1; first compound 2.53 µM): 0.412; relative viability (SK-MES-1; first compound 8 µM): 0.311; relative viability (SW 1573; first compound 0.08 µM): 0.464; relative viability (SW 1573; first compound 0.253 µM): 0.51; relative viability (SW 1573; first compound 0.8 µM): 0.434; relative viability (SW 1573; first compound 2.53 µM): 0.385; relative viability (SW 1573; first compound 8 µM): 0.351
